Read-outs that look alike come from different tables or passages of the source.
Columns and labels:
[1] = Antiproliferative IC50 of paclitaxel, doxorubicin and combination, in solution or in magnetic nanoparticles
[2] = test system: MCF-7 cells; assay: Confocal laser scanning microscopy of drug uptake and localization; assay type: cell-based; settings: 2 hours of incubation
Procedure: MCF-7 cells were seeded in Bioptechs plates (Bioptechs, Butler, Pa.) at 50,000 cells/plate in 1 mL serum-containing medium 24 hours prior to the experiment. A dispersion of drug-loaded or void nanoparticles and drug solution (10 μM) were prepared in cell-culture medium as described herein. […] Cells were washed three times with PBS before imaging them under a confocal microscope (Zeiss Confocal microscope LSM410 equipped with argon-krypton laser; Zeiss, Thornwood, N.Y.) at λex=488 nm and a long-pass filter with a cut-on filter of 515 nm for detecting the emission light.

[3] = Drug loading in magnetic nanoparticles; assay type: physicochemical; settings: for Total Drug Loading (Mean ± SEM): total drug added 10.0 % w/w, n = 2 or 3
Procedure: For incorporation in nanoparticles, hydrochloride salt of the drug (DOX.HCl) was converted to water-insoluble base (DOX) using established methods (Yolles, et al. (1978) Acta Pharm. Suec. 15:382-388). […] Stirring was continued overnight (˜16 hours) to allow partitioning of the drug into the oleic acid shell surrounding iron-oxide nanoparticles. Drug-loaded nanoparticles were separated from the unentrapped drug using a magnet (12200 Gauss; Edmund Scientific, Tonawanda, N.Y.). Nanoparticles were washed twice by re-suspending in distilled water and separated using a magnetic field. […] For drug extraction, 2 mL of 12.5% volume/volume methanolic solution in chloroform was added to the dried sample. The samples were shaken for 24 hours (Environ shaker, model no. 3527; Lab-Line Instruments, Melrose Park, Ill.). Since DOX has greater solubility in this combination of solvents than in methanol or chloroform alone, it was used for the extraction. Nanoparticles were centrifuged for 10 minutes at 16,000 g using an EPPENDORF® microcentrifuge (5417R; Eppendorf-Netheler-Hinz-GmbH, Hamburg, Germany). […] VARIAN® Inc., Walnut Creek, Calif.) at λex=485 nm and λem=591 nm. A standard plot was prepared under identical conditions to calculate the amount of drug loaded in the nanoparticles. There was no further increase in the amount of drug extracted when nanoparticles were kept for extraction for more than 24 hours. […] The cap was removed and ethanol was allowed to evaporate overnight. Magnetite nanoparticles were separated from the free drug using a magnetic field and particles were washed two times with distilled water.

Compound | IC50 ([1]; read-out: IC50 Nanoparticle) [µg/mL] | IC50 ([1]; read-out: IC50 Soluble) [µg/mL] | intracellular localization of drug [2] | Doxorubicin Loaded ([3]; added doxorubicin 5.0 % w/w + paclitaxel 5.0 % w/w) [% w/w] | Doxorubicin Loaded ([3]; added doxorubicin 10.0 % w/w, paclitaxel 0.0) [% w/w] | Total Drug Loading (Mean ± SEM) [3] [% w/w] | Paclitaxel Loaded ([3]; added paclitaxel 5.0 % w/w + doxorubicin 5.0 % w/w) [% w/w] | Paclitaxel Loaded ([3]; added paclitaxel 10.0 % w/w, doxorubicin 0.0) [% w/w]
COc1cccc2c1C(=O)c1c(O)c3c(c(O)c1C2=O)C[C@@](O)(C(=O)CO)C[C@@H]3O[C@H]1C[C@H](N)[C@H](O)[C@H](C)O1 [Doxorubicin] | 0.795 ± 0.177 | 0.103 ± 0.0178 | nuclear localization | 3.7 | 8.2 | 8.2 | – | –
CC(=O)O[C@H]1C(=O)[C@@]2(C)[C@H]([C@H](OC(=O)c3ccccc3)[C@]3(O)C[C@H](OC(=O)[C@H](O)[C@@H](NC(=O)c4ccccc4)c4ccccc4)C(C)=C1C3(C)C)[C@]1(OC(C)=O)CO[C@@H]1C[C@@H]2O [Paclitaxel] | 0.0106 ± 0.0006 | 0.0098 ± 0.0005 | – | – | – | 9.5 | 4.8 | 9.5

Reference: patent publication US20070264199A1, “Magnetic nanoparticle composition and methods for using the same” (priority 2005, published 2007)
